One experiment concerns the target METTL3/14 (Homo sapiens (Human), UniProt Q86U44). Briefly: METTL3/14 methyltransferase assay (RapidFire mass spectrometry, RFMS). It is filed as biochemical. To be noted: 5 nM METTL3/14, 0.2 μM RNA substrate, 0.5 μM SAM, 60 minutes at room temperature. The procedure:
The enzymatic assay was established to determine IC50 values for inhibition of RNA methyltransferase activity. The enzyme used was full-length his-tagged METTL3 co-expressed with full length FLAG-tagged METTL14 in a baculovirus expression system. Enzymatic reactions were performed at room temperature in 384-well plates using a final reaction volume of 20 μL containing 20 mM TrisCl pH 7.6, 1 mM DTT, 0.01% Tween-20. 5 nM final concentration of METTL3/14 was pre-incubated with various compound concentrations for 10 minutes, followed by addition of 0.2 μM final concentration synthetic RNA substrate (5′P-[…]-3′) and 0.5 μM final concentration S-adenosyl-methionine (SAM). The reaction was incubated for a further 60 minutes at room temperature, and then quenched by the addition of 40 μL 7.5% TCA with two internal product standards (D4-SAH and 13C10-SAH). After termination, plates were sealed, centrifuged and stored at 4° C. until analysis.
RNA methyltransferase activity was measured label free using the RapidFire™ mass spectrometry (RF/MS) platform. Stopped and stable assay plates were analyzed on the Agilent RF300 integrated autosampler/solid-phase extraction (SPE) system coupled to an ABSciex 4000 mass spectrometer for the generation of the product S-adenosyl homocysteine (SAH) and normalized to the ratio of signal of the two internal product standards, respectively. Solvent A was water containing 0.1% (v/v) TCA. Solvent B was acetonitrile/0.1% ammonium acetate (8:2, v/v). More specifically, plates were centrifuged at 4350 rpm for 10 min, samples were aspirated under vacuum for 600 ms, then loaded onto a C18 solid-phase extraction cartridge and washed for 3 s with solvent A at a flow rate of 1.5 mL/min. Retained product and internal standards were eluted with solvent B at a flow rate of 1 mL/min for 3 s and finally the cartridge was re-equilibrated with solvent A for 500 ms. The mass transition for the product (SAH) was 384.9/135.9 Da. Transitions of the two internal product standards (IS1: D4-SAH and IS2: 13C10-SAH) were 389.1/135.8 Da and 395.0/134.2 Da, respectively. Ratios of SAH/IS1 and SAH/IS2 were used for normalization of matrix effects. IC50 values were calculated based on dilution series of individual compounds. Potency of a compound was measured at varied inhibitor concentrations and normalized to control wells without RNA substrate and without inhibition (DMSO only).

A further experiment has as its system KASUMI-1 cells. Briefly: Kasumi cell proliferation CTG. Type of experiment: cell-based. Conditions: Homo sapiens, Kasumi 1, 120 h, treated for 120 hours, CellTiter-Glo. The procedure:
Cell culture: KASUMI-1 cells (ACC20, Leibniz-Institut DSMZ Deutsche Sammlung von Mikroorganismen und Zellkulturen GmbH) were grown in RPMI 1640 (31870-025, Gibco) supplemented with 20% fetal bovine serum (F1524, Gibco), 1 mM sodium pyruvate (11360-039, Gibco) and 2 mM Glutamax (35050-038, Gibco) in a 5% CO2 humidified incubator at 37° C.
Cell treatment and cell growth assessment: KASUMI-1 cells were seeded in ultra-low attachment 384-well culture plate (MS-9384WZ, SBio) at a final concentration of 250 000 cells/ml (35 μL/well) and treated for 120 hours with compounds inhibiting the METTL3/14 activity (10 serial semi-log dilutions, 30 μM as top concentration). Upon treatment, Kasumi1 cells were incubated for 10 min at RT with the CellTiter-Glo reagent (G7571, Promega). Measurement of the luminescence signal was performed on a microplate reader (Ensight, PerkinElmer).
In general terms: In ATP-based viability assays light output follows the ATP content of the culture.

A further experiment has as its system Caov-3 cells. The experiment is described as follows: Caov3 cell proliferation CTG. Type of experiment: cell-based. To be noted: Homo sapiens, treated for 120 hours, CellTiter-Glo. The procedure:
Cell treatment and cell growth assessment: 18 hours post-seeding in white 384-Viewplate (6007480, PerkinElmer) at 1500 cells/well, Caov3 cells were treated for 120 hours with compounds inhibiting the METTL3/14 activity (10 serial semi-log dilutions, 30 μM as top concentration). Upon treatment, Coav-3 cells were incubated for 10 min at RT with the CellTiter-Glo reagent (G7571, Promega). Measurement of the luminescence signal was performed on a microplate reader (Ensight, PerkinElmer).

SMILES strings stand for the structures.

METTL3/14, sequence (Q86U44 whole entry): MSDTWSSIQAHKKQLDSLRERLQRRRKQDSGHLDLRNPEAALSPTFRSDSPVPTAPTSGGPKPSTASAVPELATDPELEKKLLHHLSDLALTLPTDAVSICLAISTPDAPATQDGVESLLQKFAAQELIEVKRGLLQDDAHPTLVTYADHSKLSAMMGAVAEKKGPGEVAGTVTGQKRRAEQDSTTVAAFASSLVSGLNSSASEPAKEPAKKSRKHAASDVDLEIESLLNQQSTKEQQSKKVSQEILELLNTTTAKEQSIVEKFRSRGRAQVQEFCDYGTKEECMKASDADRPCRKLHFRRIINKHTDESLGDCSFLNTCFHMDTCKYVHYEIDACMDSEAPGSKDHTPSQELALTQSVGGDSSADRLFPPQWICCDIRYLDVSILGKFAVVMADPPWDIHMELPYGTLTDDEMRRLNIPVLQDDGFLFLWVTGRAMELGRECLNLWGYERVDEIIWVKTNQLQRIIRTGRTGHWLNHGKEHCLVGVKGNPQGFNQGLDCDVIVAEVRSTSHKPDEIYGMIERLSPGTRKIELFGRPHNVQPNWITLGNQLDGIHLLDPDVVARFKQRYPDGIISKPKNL
METTL3/14, sequence (Q9HCE5 whole entry partner): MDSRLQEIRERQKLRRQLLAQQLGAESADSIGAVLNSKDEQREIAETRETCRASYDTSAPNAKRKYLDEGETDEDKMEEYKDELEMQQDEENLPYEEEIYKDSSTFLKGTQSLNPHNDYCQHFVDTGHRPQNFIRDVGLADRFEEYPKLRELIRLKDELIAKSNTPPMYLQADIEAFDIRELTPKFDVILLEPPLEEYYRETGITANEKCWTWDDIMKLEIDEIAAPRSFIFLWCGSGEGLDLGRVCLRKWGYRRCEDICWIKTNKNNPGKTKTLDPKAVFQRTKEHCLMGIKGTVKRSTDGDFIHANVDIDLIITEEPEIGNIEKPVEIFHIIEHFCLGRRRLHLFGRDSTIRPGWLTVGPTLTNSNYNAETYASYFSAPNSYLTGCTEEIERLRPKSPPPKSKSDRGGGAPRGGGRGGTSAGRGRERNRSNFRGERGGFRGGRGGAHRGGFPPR

A word on the IC50: it is the concentration needed to halve the response being measured. The low end stands for greater potency, the high end for weaker potency. With `Nc1ncnc2c1c(Br)cn2[C@@H]1C[C@H](c2ccc(CN3CCC4(CCC4)C3)cc2)[C@@H](O)[C@H]1O` [Example 35, (1R,2S,3R,5R)-3-{4-amino-5-bromo-7H-pyrrolo[2,3-d]pyrimidin-7-yl}-5-[4-({6-azaspiro[3.4]octan-6-yl}methyl)phenyl]cyclopentane-1,2-diol], the IC50 stood at 0.0637 µM at METTL3/14, 4.16 µM in the experiment with KASUMI-1 cells and 4.56 µM with Caov-3 cells.

As to `CC1(C)CCN(Cc2ccc([C@H]3C[C@@H](n4cc(Br)c5c(N)ncnc54)[C@H](O)[C@@H]3O)cc2)CC1` [Example 36, (1R,2S,3R,5R)-3-{4-amino-5-bromo-7H-pyrrolo[2,3-d]pyrimidin-7-yl}-5-{4-[(4,4-dimethylpiperidin-1-yl)methyl]phenyl}cyclopentane-1,2-diol], the IC50 is 0.103 µM on METTL3/14, 5.27 µM with KASUMI-1 cells and 7.75 µM in the experiment on Caov-3 cells.

In the case of `Nc1ncnc2c1c(Br)cn2[C@@H]1C[C@H](c2cccc(CCNCC34CC(F)(C3)C4)c2)[C@@H](O)[C@H]1O` [Example 37, (1R,2S,3R,5R)-3-{4-amino-5-bromo-7H-pyrrolo[2,3-d]pyrimidin-7-yl}-5-(3-{2-[{{3-fluorobicyclo[1.1.1]pentan-1-yl}methyl)amino]ethyl}phenyl)cyclopentane-1,2-diol], the IC50 on METTL3/14 was determined as 0.117 µM; with KASUMI-1 cells, 2.14 µM; in the experiment on Caov-3 cells it was 3.26 µM.

Take `Nc1ncnc2c1c(Br)cn2[C@@H]1C[C@H](c2cccc(CN3CCC4(CCC4)C3)c2)[C@@H](O)[C@H]1O` [Example 38, (1R,2S,3R,5R)-3-{4-amino-5-bromo-7H-pyrrolo[2,3-d]pyrimidin-7-yl}-5-[3-({6-azaspiro[3.4]octan-6-yl}methyl)phenyl]cyclopentane-1,2-diol]: the IC50 against METTL3/14 amounted to 2.64 µM; with KASUMI-1 cells, 2.95 µM; in the experiment with Caov-3 cells, 6.76 µM.

Turning to `Nc1ncnc2c1c(Br)cn2[C@@H]1C[C@H](c2cccc(CNCC34CC(F)(C3)C4)c2)[C@@H](O)[C@H]1O` [Example 39, (1R,2S,3R,5R)-3-{4-amino-5-bromo-7H-pyrrolo[2,3-d]pyrimidin-7-yl}-5-(3-{[{{3-fluorobicyclo[1.1.1]pentan-1-yl}methyl)amino]methyl}phenyl)cyclopentane-1,2-diol], the values for the IC50 against METTL3/14, in the experiment on KASUMI-1 cells and in the experiment on Caov-3 cells were 3.01 µM, 2.39 µM and 4.65 µM, respectively.

(Values after patent US20240101589A1, “INHIBITORS OF METTL3” (Strom Therapeutics Limited, priority 2020, published 2024).)
